Here are results for 35 compounds from a melting point compilation (Tetko et al.; mined from patent text by program, amines drawn as free bases though some values may be those of a salt).

Molecules are shown by their SMILES.

For orientation: melting point means the temperature, or range, at which the solid turns liquid.

As for `CC(=NOCCOc1ccc(CC2SC(=O)N(C(c3ccccc3)(c3ccccc3)c3ccccc3)C2=O)cc1)c1ccc(-c2ccccc2)cc1` (stereo not given), the melting point came to 145 °C.
In turn, `O=C(CCCCCN1C(=O)c2ccc([N+](=O)[O-])cc2C1=O)NO` gave a melting point of 130 to 132 °C.
In the case of `CC(C)C[C@H](NC(=O)OCc1ccccc1)C(=O)N[C@@H](Cc1ccccc1)C(=O)CSCCN(C)C`, the melting point lay within 67 to 69 °C.
For `CCn1cc(C(=O)Nc2ccc(C(C)C)cc2)cn1`, the melting point is 141 °C.
In turn, `COC(=O)c1cccc(NC(=O)C=C(c2ccc(Cl)cc2)c2ccc(Cl)cc2)c1` yielded a melting point of 155 to 159 °C.
Regarding `COc1cccc(CCNC(=O)Cc2cccs2)c1`, the melting point was 50 °C.
`Cc1c(NC(=O)c2ccc(CC(=O)c3ccccc3)cc2)ccc2cc(CN3CCCC3)cnc12` gave a melting point of 187 °C.
In turn, `CCn1c(=O)c(Oc2ccc(F)cc2F)cc2cnc(S(C)(=O)=O)nc21` registered a melting point of 128 to 129 °C.
In turn, `O=C1c2ccccc2C(=O)N1CC(=O)N(CC(=O)N1CCc2ccccc21)c1ccccc1` gave a melting point of 230 °C.
In turn, `NC(=O)n1ccc(-c2ccc(Oc3ccc(N)cc3)cc2)n1` came in with a melting point of 158 to 160 °C.
`S=c1ncn(-c2ccc(Cl)cc2)[nH]1` yielded a melting point of 222 to 224 °C.
The figure for `CNC(=C[N+](=O)[O-])NCCCOc1cccc(CCN(C)C)c1` is 93 to 94 °C; for `Cc1nn(-c2c(Cl)cc(Cl)cc2Cl)c(N)c1C(=O)c1ccccc1Cl` it is 220 °C; for `Cc1[nH]c(C)c(-c2ccc(Oc3ccc(Cl)cc3)cc2)c(=O)c1Cl` it is 340 to 343 °C.
Compound `CCNC1c2cc(S(N)(=O)=O)oc2SCC1(C)C` (stereo not given) registered a melting point of 147 °C.
Compound `CCOC(=O)c1ccc(-c2cnc3c(c2)N(Cc2c(Cl)cccc2Cl)C(=O)CN3)cc1` returned a melting point of 226 °C.
In turn, `COc1ccc(Cn2cnc3c(=O)[nH]c(N)nc32)cc1` yielded a melting point greater than 300 °C.
`CCOC(=O)N1CCC(=C2c3ccc(F)cc3CCc3cccnc32)CC1` showed a melting point of 116 to 118 °C.
In the case of `COC(=O)c1cc2ccc(OC)cc2o1`, the melting point fell in the range of 97 to 98 °C.
`C=Cc1c(N)nc(-c2ccc(C)cc2)nc1C(=O)OC` gave a melting point of 122 to 123 °C.
The figure for `Nc1nc2ccc(NC(=O)c3ccccc3)cc2s1` is 213 to 215 °C; for `Cc1cccc(CO)c1CNc1cc(Br)cc2c1nc(C)n2C` it is 215 to 216 °C.
As for `COC(=O)c1cc2ccc3c(c2c(-c2ccc4c(c2)OCO4)c1C(=O)OC)OCO3`, the melting point was 157 to 159 °C.
`CCCCC1(C(=O)Nc2ccc(Oc3ccc(Cl)cc3)c(C(F)(F)F)c2)CC1` returned a melting point of 104 to 106 °C.
With `CCOC(=O)NNc1n[nH]c2cc(Cl)ccc12`, the melting point lay in the range of 210 to 211 °C.
Take `CCOC(=O)c1c(OCC)nsc1NC(=O)N(C)C`: the melting point fell in the range of 164 to 165 °C.
In the case of `CCCn1c(=S)nc(NCc2ccncc2)c2[nH]c(C3CC3)nc21`, the melting point lay in the range of 204 to 210 °C.
Consider `NC(=O)c1cccc(O)c1F`, for which the melting point lay in the range of 196 to 197 °C.
In the case of `CCOC(=O)c1conc1-c1ccc(Cl)c(F)c1`, the melting point was in the range of 77 to 78 °C.
In turn, `CC(=O)Nc1nc(CCc2ccc(NC(N)=S)cc2)c(Cc2ccc(S(C)(=O)=O)cc2)s1` yielded a melting point of 102 to 103 °C.
Regarding `CC(C)(O)CCOc1c(-c2ccc(S(C)(=O)=O)cc2)cnn(-c2ccc(Cl)c(Cl)c2)c1=O`, the melting point was in the range of 118 to 120 °C.
Next, `COC1=NC2C=C(C(=O)NCC3CC3)C(NC(=O)c3cc(C(F)(F)F)nn3-c3ncccc3Cl)=C(Cl)C2S1` (stereo not given): 199 to 201 °C.
In turn, `COc1ccc(-c2cc(=S)n(C)c(=O)n2C)cc1OC` displayed a melting point of 146 to 148 °C.
The compound `CNc1nc(-c2ccccc2)c(-c2nc(N)nc(Nc3cccc([N+](=O)[O-])c3)n2)s1` returned a melting point of 277 °C.
Next, `CO/C=C(\C(=O)OC)c1ccccc1C`: 68 to 70 °C.
